Usually IC50 stands for the concentration that inhibits the measured activity by half.

38 compounds from patent US6881741B2 (ViroChem Pharma Inc., priority 2001, dated 2005) can be followed below.

One experiment deals with recombinant HCV NS5B (HCV RNA-dependent RNA polymerase) (Hepatitis C virus genotype 1b, UniProt P26663). As to the kind of experiment: biochemical. To be noted: HCV polymerase activity, list of compounds of Example 27; read-out: IC50 (polymerase activity).
Chain of recombinant HCV NS5B (HCV RNA-dependent RNA polymerase) (P26663 2420-3010 limits assumed): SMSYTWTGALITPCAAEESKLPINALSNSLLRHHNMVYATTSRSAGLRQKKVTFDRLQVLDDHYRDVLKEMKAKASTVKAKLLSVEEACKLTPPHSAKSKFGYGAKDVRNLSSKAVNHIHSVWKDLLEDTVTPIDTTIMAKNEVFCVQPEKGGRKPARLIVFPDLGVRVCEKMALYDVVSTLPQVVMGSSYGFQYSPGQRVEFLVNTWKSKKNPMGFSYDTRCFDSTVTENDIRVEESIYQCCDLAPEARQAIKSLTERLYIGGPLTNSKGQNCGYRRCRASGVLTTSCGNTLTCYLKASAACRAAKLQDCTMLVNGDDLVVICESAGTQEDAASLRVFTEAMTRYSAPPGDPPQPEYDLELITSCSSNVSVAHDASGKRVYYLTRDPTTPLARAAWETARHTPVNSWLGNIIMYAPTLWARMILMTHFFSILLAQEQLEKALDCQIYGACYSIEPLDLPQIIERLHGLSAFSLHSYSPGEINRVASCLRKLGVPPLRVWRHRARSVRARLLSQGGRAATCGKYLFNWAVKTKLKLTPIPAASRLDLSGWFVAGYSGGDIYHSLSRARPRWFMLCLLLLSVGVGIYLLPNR
In the case of `COCC(C)N(C(=O)C1CCC(C)CC1)c1cc(-c2ccccc2)sc1C(=O)O` (centres unmarked) [Compound 578, 3-[(2-METHOXY-1-METHYL-ETHYL)-(4- METHYL-CYCLOHEXANECARBONYL)- AMINO]-5-PHENYL-THIOPHENE-2- CARBOXYLIC ACID], the IC50 was less than 5 µM.

For `O=C(O)c1sc(-c2ccccc2)cc1N(CC1CCN(C(=O)OCc2ccccc2)CC1)C(=O)c1ccc(Cl)cc1Cl` [Compound 508, 4-{[(2-CARBOXY-5-PHENYL-THIOPHEN-3- YL)-(2,4-DICHLORO-BENZOYL)-AMINO]- METHYL}-PIPERIDINE-1-CARBOXYLIC ACID BENZYL ESTER], the IC50 was less than 5 µM. Turning to `CC1CCC(C(=O)N(c2cc(C3CCN(C)CC3)sc2C(=O)O)C(C)C)CC1` (centres unmarked) [Compound 536, 3-[ISOPROPYL-(4-METHYL- CYCLOHEXANECARBONYL)-AMINO]-5-(1- METHYL-PIPERIDIN-4-YL)-THIOPHENE-2- CARBOXYLIC ACID], the IC50 is less than 5 µM.

For `Cc1cccc(CN(C(=O)CC2CCCC2)c2cc(-c3ccccc3)sc2C(=O)O)c1` [Compound 445, 3-[(2-CYCLOPENTYL-ACETYL)-(3- METHYL-BENZYL)-AMINO]-5-PHENYL- THIOPHENE-2-CARBOXYLIC ACID], the half-maximal inhibitory concentration (IC50) is less than 5 µM.

`CCCC(=O)N(Cc1cccc(Cl)c1)c1cc(-c2ccccc2)sc1C(=O)O` [Compound 482, 3-[BUTYRYL-(3-CHLORO-BENZYL)- AMINO]-5-PHENYL-THIOPHENE-2- CARBOXYLIC ACID]: the IC50 is less than 5 µM. On to `O=C(O)c1sc(-c2ccccc2)cc1N(Cc1ccc([N+](=O)[O-])cc1)C(=O)C1CC1` [Compound 420, 3-[CYCLOPROPANECARBONYL-(4- NITRO-BENZYL)-AMINO]-5-PHENYL- THIOPHENE-2-CARBOXYLIC ACID], for which the IC50 lay within 5 to 20 µM. On the same count and under the same terms, under `CCN(C(=O)CCC(C)C)c1cc(-c2ccccc2)sc1C(=O)O` [Compound 494, 3-[ETHYL-(4-METHYL-PENTANOYL)- AMINO]-5-PHENYL-THIOPHENE-2- CARBOXYLIC ACID] stands less than 5 µM; under `CC(C)N(C(=O)c1ccc(Cl)cc1Cl)c1cc(C2=CCN(C(=O)OCc3ccccc3)CC2)sc1C(=O)O` [Compound 504, 4-(5-CARBOXY-4-[(2,4-DICHLORO- BENZOYL)-ISOPROPYL-AMINO]- THIOPHEN-2-YL)-3,6-DIHYDRO-2#H!- PYRIDINE-1-CARBOXYLIC ACID BENZYL ESTER], less than 5 µM.

Still in this experiment, the particulars now being: related polymerase activity (Example 27 list); read-out: IC50.
On to `Cc1ccc(C(=O)N(c2cc(-c3ccccc3)sc2C(=O)O)C(C)C)cc1` [Compound 211, 3-[ISOPROPYL-(4-METHYL-BENZOYL)-AMINO]-5-PHENYL-THIOPHENE-2-CARBOXYLIC ACID], for which the IC50 was less than 5 µM. Consider `Cc1ccccc1S(=O)(=O)Nc1cc(-c2cc3ccccc3o2)sc1C(=O)O` [Compound 127, 5-BENZOFURAN-2-YL-3-(TOLUENE-2-SULFONYLAMINO)-THIOPHENE-2-CARBOXYLIC ACID], for which the IC50 was less than 5 µM.

In the case of `Cc1ccc(C(=O)N(C)c2cc(-c3cccc(F)c3)sc2C(=O)O)cc1` [Compound 213, 5-(3-FLUORO-PHENYL)-3-[METHYL-(4-METHYL-BENZOYL)-AMINO]-THIOPHENE-2-CARBOXYLIC ACID], the IC50 was less than 5 µM.

On to `COc1cc(C)c(S(=O)(=O)Nc2cc(-c3ccccc3)sc2C(=O)O)c(C)c1C` [Compound 22, 3-(4-METHOXY-2,3,6-TRIMETHYL-BENZENESULFONYLAMINO)-5-PHENYL-THIOPHENE-2-CARBOXYLIC ACID], for which the IC50 is less than 5 µM. `C=Cc1cc(C)ccc1C(=O)N(c1cc(-c2ccccc2)sc1C(=O)O)C(C)C` [Compound 395, 3-[ISOPROPYL-(4-METHYL-2-VINYL- BENZOYL)-AMINO]-5-PHENYL- THIOPHENE-2-CARBOXYLIC ACID]: the IC50 is 5 to 20 µM.

Consider `Cc1ccc(C(=O)N(C)c2cc(-c3ccc(F)cc3)sc2C(=O)O)cc1` [Compound 197, 5-(4-FLUORO-PHENYL)-3-[METHYL-(4-METHYL-BENZOYL)-AMINO]-THIOPHENE-2-CARBOXYLIC ACID], for which the 50% inhibitory concentration (IC50) was less than 5 µM.

`Cc1ccccc1S(=O)(=O)Nc1cc(-c2ccc(F)c(F)c2)sc1C(=O)O` [Compound 70, 5-(3,4-DIFLUORO-PHENYL)-3-(TOLUENE-2-SULFONYLAMINO)-THIOPHENE-2-CARBOXYLIC ACID]: the IC50 was less than 5 µM. On to `CC1CCCCC1C(=O)N(c1cc(-c2ccccc2)sc1C(=O)O)C(C)C` (centres unmarked) [Compound 378, 3-[ISOPROPYL-(2-METHYL- CYCLOHEXANECARBONYL)-AMINO]-5- PHENYL-THIOPHENE-2-CARBOXYLIC ACID], for which the 50% inhibitory concentration (IC50) was in the range of 5 to 20 µM. As to `Cc1ccccc1S(=O)(=O)Nc1cc(-c2cccc(C#N)c2)sc1C(=O)O` [Compound 117, 5-(3-CYANO-PHENYL)-3-(TOLUENE-2-SULFONYLAMINO)-THIOPHENE-2-CARBOXYLIC ACID], the IC50 is less than 5 µM.

For `O=C(O)c1sc(-c2ccc([N+](=O)[O-])cc2)cc1NS(=O)(=O)c1ccccn1` [Compound 129, 5-(4-NITRO-PHENYL)-3-(PYRIDINE-2-SULFONYLAMINO)-THIOPHENE-2-CARBOXYLIC ACID], the IC50 is 5 to 20 µM. Regarding `O=C(O)c1sc(-c2ccccc2)cc1NS(=O)(=O)c1ccc(F)c(C(F)(F)F)c1` [Compound 145, 3-(4-FLUORO-3-TRIFLUOROMETHYL-BENZENESULFONYLAMINO)-5-PHENYL-THIOPHENE-2-CARBOXYLIC ACID], the IC50 fell in the range of 5 to 20 µM. Take `C=CCN(C(=O)Cc1ccc(C(F)(F)F)cc1)c1cc(-c2ccccc2)sc1C(=O)O` [Compound 352, 3-{ALLYL-[2-(4-TRIFLUOROMETHYL- PHENYL)-ACETYL]-AMINO}-5-PHENYL- THIOPHENE-2-CARBOXYLIC ACID]: the IC50 was more than 20 µM. For `C=CCN(C(=O)c1ccc(C)cc1)c1cc(-c2ccc(/C=C/C(=O)O)cc2)sc1C(=O)O` [Compound 312, 3-[ALLYL-(4-METHYL-BENZOYL)-AMINO]- 5-[4-(2-CARBOXY-VINYL)-PHENYL]- THIOPHENE-2-CARBOXYLIC ACID], the IC50 is less than 5 µM.

`Cc1ccccc1S(=O)(=O)Nc1cc(-c2cccc(O)c2)sc1C(=O)O` [Compound 171, 5-(3-HYDROXY-PHENYL)-3-(TOLUENE-2-SULFONYLAMINO)-THIOPHENE-2-CARBOXYLIC ACID]: the IC50 is less than 5 µM. Consider `Cc1c(-c2ccccc2)sc(C(=O)O)c1N(C(=O)c1ccc(Cl)cc1Cl)C(C)C` [Compound 314, 3-[(2,4-DICHLORO-BENZOYL)- ISOPROPYL-AMINO]-4-METHYL-5- PHENYL-THIOPHENE-2-CARBOXYLIC ACID], for which the IC50 was in the range of 5 to 20 µM.

With `O=C(Nc1cc(-c2ccccc2)sc1C(=O)O)c1ccc(Cl)cc1` [Compound 72, 3-(4-CHLORO-BENZOYLAMINO)-5-PHENYL-THIOPHENE-2-CARBOXYLIC ACID], the IC50 lay in the range of 5 to 20 µM.

For the compound `Cc1ccc(S(=O)(=O)Nc2cc(-c3ccsc3)sc2C(=O)O)cc1` [Compound 11, 4-(TOLUENE-4-SULFONYLAMINO)-[2,3′]BITHIOPHENYL-5-CARBOXYLIC ACID], the IC50 was 5 to 20 µM. In the case of `CN(C(=O)c1cc2ccccc2o1)c1cc(-c2ccccc2)sc1C(=O)O` [Compound 130, 3-[(BENZOFURAN-2-CARBONYL)-METHYL-AMINO]-5-PHENYL-THIOPHENE-2-CARBOXYLIC ACID], the IC50 was more than 20 µM. Same read-out and setting: under `O=C(O)c1sc(-c2ccccc2)cc1NCc1ccc(Cl)cc1Cl` [Compound 48, 3-(2,4-DICHLORO-BENZYLAMINO)-5-PHENYL-THIOPHENE-2-CARBOXYLIC ACID] stands less than 5 µM. In the case of `Cc1ccc(C(=O)N(C)c2cc(-c3ccccc3F)sc2C(=O)O)cc1` [Compound 266, 5-(2-FLUORO-PHENYL)-3-[METHYL-(4-METHYL-BENZOYL)-AMINO]-THIOPHENE-2-CARBOXYLIC ACID], the IC50 is less than 5 µM. As to `O=C(O)c1sc(-c2ccc(F)cc2)cc1NS(=O)(=O)c1ccccn1` [Compound 133, 5-(4-FLUORO-PHENYL)-3-(PYRIDINE-2-SULFONYLAMINO)-THIOPHENE-2-CARBOXYLIC ACID], the IC50 was less than 5 µM. `Cc1ccc(C(=O)N(C)c2cc(-c3cccc(O)c3)sc2C(=O)O)cc1` [Compound 273, 5-(3-HYDROXY-PHENYL)-3-[METHYL-(4-METHYL-BENZOYL)-AMINO]-THIOPHENE-2-CARBOXYLIC ACID]: the IC50 is less than 5 µM. For `O=C(O)c1sc(-c2ccccc2)cc1NC(=O)N1CCN(c2cccc(Cl)c2)CC1` [Compound 160, 3-{[4-(3-CHLORO-PHENYL)-PIPERAZINE-1-CARBONYL]-AMINO}-5-PHENYL-THIOPHENE-2-CARBOXYLIC ACID], the IC50 fell in the range of 5 to 20 µM.

Turning to `Cc1ccccc1S(=O)(=O)Nc1cc(/C=C/c2ccc(Cl)cc2)sc1C(=O)O` [Compound 134, 5-[2-(4-CHLORO-PHENYL)-VINYL]-3-(TOLUENE-2-SULFONYLAMINO)-THIOPHENE-2-CARBOXYLIC ACID], the IC50 was 5 to 20 µM. In the case of `O=C(O)c1sc(-c2ccccc2)cc1NS(=O)(=O)c1ccc(F)cc1F` [Compound 27, 3-(2,4-DIFLUORO-BENZENESULFONYLAMINO)-5-PHENYL-THIOPHENE-2-CARBOXYLIC ACID], the IC50 is less than 5 µM. On to `CCN(C(=O)C1CCC1)c1cc(-c2ccccc2)sc1C(=O)O` [Compound 393, 3-(CYCLOBUTANECARBONYL-ETHYL- AMINO)-5-PHENYL-THIOPHENE-2- CARBOXYLIC ACID], for which the IC50 lay within 5 to 20 µM.

For the compound `CC(C)N(C(=O)c1ccc(Cl)cc1N)c1cc(-c2ccccc2)sc1C(=O)O` [Compound 328, 3-[(2-AMINO-4-CHLORO-BENZOYL)- ISOPROPYL-AMINO]-5-PHENYL- THIOPHENE-2-CARBOXYLIC ACID], the IC50 was less than 5 µM. Regarding `CCC(C)N(C(=O)c1ccc(Cl)cc1Cl)c1cc(-c2ccccc2)sc1C(=O)O` (centres unmarked) [Compound 261, 3-[SEC-BUTYL-(2,4-DICHLORO-BENZOYL)-AMINO]-5-PHENYL-THIOPHENE-2-CARBOXYLIC ACID], the IC50 is less than 5 µM. For the compound `Cc1ccc(C(=O)N(Cc2ccc([N+](=O)[O-])cc2)c2cc(-c3ccccc3)sc2C(=O)O)cc1` [Compound 342, 3-[(4-METHYL-BENZOYL)-(4-NITRO- BENZYL)-AMINO]-5-PHENYL-THIOPHENE- 2-CARBOXYLIC ACID], the IC50 was less than 5 µM. The same measure, in the same setting: the figure for `Cc1ccccc1S(=O)(=O)Nc1cc(-c2ccc(F)cc2)sc1C(=O)O` [Compound 66, 5-(4-FLUORO-PHENYL)-3-(TOLUENE-2-SULFONYLAMINO)-THIOPHENE-2-CARBOXYLIC ACID] is less than 5 µM.
